# Measurements from patent US20250129032A1 (Nerio Therapeutics, Inc., priority 2022, published 2025).
# Legend:
# [1] = molecular target: untagged, full-length human PTPN2 (TC45) (1-387) protein (Homo sapiens (Human), UniProt P17706); test: Enzymatic assay used to determine potency of PTPN2 inhibitors (DiFMUP substrate); format: biochemical; conditions: 0.5 nM PTPN2, 100 μM DiFMUP, 30 min at room temperature
# Text: Compounds were subsequently added using a Tecan D300e dispenser. […] A four-parameter curve fit was used to determine IC50 values from % inhibition data.
# [2] = tested on: murine B16F10 melanoma cell line; test: B16F10 IFNγ-induced cellular growth inhibition assay (xCELLigence RTCA); format: cell-based; conditions: Mus musculus, B16-F10, 48 h; read-out: B16 IFNγ Mediated Growth Inhibition Assay: AVG IC50
# Experimental: Example B: B16F10 Cellular Growth Inhibition Assay Compound activity was determined using an interferon gamma (IFNγ)-induced cellular growth inhibition assay with the murine B16F10 melanoma cell line on an Agilent xCELLigence Real-Time Cell Analysis platform (RTCA). RTCA E-Plate View 96 plates (Agilent, 300601010) were pre-equilibrated with 50 μL of assay media (DMEM+10% FBS, Gibco 10566-024, Gibco 10082-147) at 37° C. in a humidified incubator before taking an initial measurement of impedance (sweep). B16F10 cells cultured in assay media were dissociated with TrypLE Express (Gibco 12605-010) for five minutes at 37° C., diluted in 3 volumes of assay buffer, centrifuged for 5 minutes at 500×g at room temperature before diluting cells to 7,700 cells/mL in assay media, plating 130 μL/well (1,000 cells/well) in the inner 60 wells of the assay plate, and adding 150 μL of assay media to the outer wells of the plate. Cells were incubated at room temperature for 20 min to allow cells to settle before placing them in the xCELLigence reader and incubating overnight at 37° C., sweeping wells every 15 minutes. After 24 hours, well readings were paused, plates were removed from the incubator and compounds were added using a Tecan D300e dispenser. All wells were normalized to a final concentration of 0.5% DMSO. Following a 30 min incubation at 37° C., recombinant mouse IFNγ (R&D Systems™ 485MI100) was diluted to 10 ng/mL in assay media and 20 μL was added to assay wells (1 ng/mL final concentration). Assay plates were placed in the xCELLigence reader and swept every 15 minutes. After 48 hours, well readings were normalized to the time point immediately preceding compound addition and the area under the growth curve (AUC) was calculated by the RTCA software and exported.
# Chain of untagged, full-length human PTPN2 (TC45) (1-387) protein (P17706 other isoform, or with tags, fused parts or gaps): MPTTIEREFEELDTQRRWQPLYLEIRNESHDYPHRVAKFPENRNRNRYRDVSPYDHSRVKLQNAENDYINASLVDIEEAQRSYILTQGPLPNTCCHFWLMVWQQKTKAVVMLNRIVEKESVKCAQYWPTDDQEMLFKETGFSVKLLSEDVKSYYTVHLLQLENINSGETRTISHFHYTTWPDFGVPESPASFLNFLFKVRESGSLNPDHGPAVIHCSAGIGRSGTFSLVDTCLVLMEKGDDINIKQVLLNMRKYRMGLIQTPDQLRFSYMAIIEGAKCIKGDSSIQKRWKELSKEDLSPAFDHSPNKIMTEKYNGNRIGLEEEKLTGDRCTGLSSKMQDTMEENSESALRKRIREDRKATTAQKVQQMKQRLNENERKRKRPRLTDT
Compound,IC50 [1],IC50 [2]
"NCC[C@H]1CCc2cc(O)c(N3CC(=O)NS3(=O)=O)c(F)c2CC1 (single isomer, unassigned) [Example 2]",176 nM,
CNC1CCc2cc(O)c(N3CC(=O)NS3(=O)=O)c(F)c2CC1 (stereo not shown) [Example 3],16.5 nM,5140 nM
"O=C1CN(c2c(O)cc3c(c2F)CC[C@H](N2CCCC2)CC3)S(=O)(=O)N1 (single isomer, unassigned) [Example 15]",79.5 nM,16800 nM
CCNC1CCc2cc(O)c(N3CC(=O)NS3(=O)=O)c(F)c2CC1 (stereo not shown) [Example 5],17.5 nM,2490 nM
"O=C1CN(c2c(O)cc3c(c2F)CC[C@@H](N2CCCC2)CC3)S(=O)(=O)N1 (single isomer, unassigned) [Example 14]",13.6 nM,15200 nM
O=C1CN(c2c(O)cc3c(c2F)CCC(N2CCCC2)CC3)S(=O)(=O)N1 (stereo not shown) [Example 9],21.6 nM,4150 nM
"CC(C)CCN[C@@H]1CCCc2cc(O)c(N3CC(=O)NS3(=O)=O)c(F)c2C1 (single isomer, unassigned) [Example 27]",215 nM,> 71100 nM
CC(C)CCNC1CCc2cc(O)c(N3CC(=O)NS3(=O)=O)c(F)c2CC1 (stereo not shown) [Example 22],24.5 nM,
"O=C1CN(c2c(O)cc3c(c2F)CC[C@@H](NCCC2CCCC2)CC3)S(=O)(=O)N1 (single isomer, unassigned) [Example 10]",5 nM,6630 nM
"O=C1CN(c2c(O)cc3c(c2F)CC[C@H](N2CCC4(CCC4)C2)CC3)S(=O)(=O)N1 (single isomer, unassigned) [Example 17]",93 nM,13500 nM
O=C1CN(c2c(O)cc3c(c2F)CCC(NC2CCCC2)CC3)S(=O)(=O)N1 (stereo not shown) [Example 12],19.8 nM,4060 nM
"O=C1CN(c2c(O)cc3c(c2F)CC[C@H](NCCC2CCCC2)CC3)S(=O)(=O)N1 (single isomer, unassigned) [Example 11]",149 nM,> 100000 nM
O=C1CN(c2c(O)cc3c(c2F)CCC(O)CC3)S(=O)(=O)N1 (stereo not shown) [Example 8],47.3 nM,1590 nM
"CC(C)CCCN1CCc2cc(O)c(N3CC(=O)NS3(=O)=O)c(F)c2CC1 [Example 31, 5-(6-fluoro-8-hydroxy-3-(4-methylpentyl)-2,3,4,5-tetrahydro-1H-benzo[d]azepin-7-yl)-1,2,5-thiadiazolidin-3-one 1,1-dioxide]",1.06 nM,1730 nM
CC(C)(C)NC1CCc2cc(O)c(N3CC(=O)NS3(=O)=O)c(F)c2CC1 (stereo not shown) [Example 13],85.3 nM,> 100000 nM
"N[C@H]1CCc2cc(O)c(N3CC(=O)NS3(=O)=O)c(F)c2CC1 (single isomer, unassigned) [Example 6]",5.67 nM,1630 nM
"CC(C)CCNC1CCCc2cc(O)c(N3CC(=O)NS3(=O)=O)c(F)c2C1 (stereo not shown) [Example 25, 5-(1-fluoro-3-hydroxy-8-(isopentylamino)-6,7,8,9-tetrahydro-5H-benzo[7]annulen-2-yl)-1,2,5-thiadiazolidin-3-one 1,1-dioxide]",25.9 nM,7080 nM

Compound,IC50 [1],IC50 [2]
N#CCC1CCc2cc(O)c(N3CC(=O)NS3(=O)=O)c(F)c2CC1 (stereo not shown) [Example 32],46.9 nM,14900 nM
"O=C1CN(c2c(O)cc3c(c2F)CCCCC3)S(=O)(=O)N1 [Example 29, 5-(1-fluoro-3-hydroxy-6,7,8,9-tetrahydro-5H-benzo[7]annulen-2-yl)-1,2,5-thiadiazolidin-3-one 1,1-dioxide]",109 nM,13600 nM
"CC(C)CCN[C@H]1CCCc2cc(O)c(N3CC(=O)NS3(=O)=O)c(F)c2C1 (single isomer, unassigned) [Example 26]",19.8 nM,5020 nM
"CN(C)[C@H]1CCc2cc(O)c(N3CC(=O)NS3(=O)=O)c(F)c2CC1 (single isomer, unassigned) [Example 18]",879 nM,> 100000 nM
"CCN[C@H]1CCc2cc(O)c(N3CC(=O)NS3(=O)=O)c(F)c2CC1 (single isomer, unassigned) [Example 20]",12.7 nM,4130 nM
CN(C)C1CCc2cc(O)c(N3CC(=O)NS3(=O)=O)c(F)c2CC1 (stereo not shown) [Example 4],14.9 nM,2890 nM
CN(C)CCC1CCc2cc(O)c(N3CC(=O)NS3(=O)=O)c(F)c2CC1 (stereo not shown) [Example 33],21.1 nM,
"NCC[C@@H]1CCc2cc(O)c(N3CC(=O)NS3(=O)=O)c(F)c2CC1 (single isomer, unassigned) [Example 1]",5.07 nM,
"CC(C)CCN(C)C1CCCc2cc(O)c(N3CC(=O)NS3(=O)=O)c(F)c2C1 (stereo not shown) [Example 28, 5-(1-fluoro-3-hydroxy-8-(isopentyl(methyl)amino)-6,7,8,9-tetrahydro-5H-benzo[7]annulen-2-yl)-1,2,5-thiadiazolidin-3-one 1,1-dioxide]",39.9 nM,> 61200 nM
"CCN[C@@H]1CCc2cc(O)c(N3CC(=O)NS3(=O)=O)c(F)c2CC1 (single isomer, unassigned) [Example 21]",374 nM,54000 nM
"O=C1CN(c2c(O)cc3c(c2F)CC[C@@H](N2CCC4(CCC4)C2)CC3)S(=O)(=O)N1 (single isomer, unassigned) [Example 16]",10.7 nM,6660 nM
"CNC[C@H]1CCc2cc(O)c(N3CC(=O)NS3(=O)=O)c(F)c2CC1 (single isomer, unassigned) [Example 23]",2 nM,2160 nM
"N[C@@H]1CCc2cc(O)c(N3CC(=O)NS3(=O)=O)c(F)c2CC1 (single isomer, unassigned) [Example 7]",444 nM,> 100000 nM
"CN(C)[C@@H]1CCc2cc(O)c(N3CC(=O)NS3(=O)=O)c(F)c2CC1 (single isomer, unassigned) [Example 19]",12.4 nM,2690 nM
"O=C1CN(c2c(O)cc3c(c2F)CCNCC3)S(=O)(=O)N1 [Example 30, 5-(6-fluoro-8-hydroxy-2,3,4,5-tetrahydro-1H-benzo[d]azepin-7-yl)-1,2,5-thiadiazolidin-3-one 1,1-dioxide]",2.28 nM,996 nM
"CNC[C@@H]1CCc2cc(O)c(N3CC(=O)NS3(=O)=O)c(F)c2CC1 (single isomer, unassigned) [Example 24]",75 nM,
